Legend:
[1] = tested on: MCF-7 human breast carcinoma cells; assay: Inhibition of the growth of MCF-7 human breast carcinoma cells; type: cell-based; details: for IC50: Homo sapiens, MCF7, inhibition of cell growth, cells grown for 96 h, read-out: MCF-7 IC50 ± SD
Description: The methodology for the evaluation of the growth of human MCF-7 breast carcinoma cells was previously described, except that cells were grown for 96 h for IC50 determinations.[66] U-87 MG and OVCAR-3 proliferation assays were performed plating 10^4 cells/cm^2 in a Multiwell 24. The day after, cells were treated with compound 15, and DMSO was used as a control. Cells were counted 48 h later with a Bürker counting chamber, after dilution in TrypanBlue (#T6146 Sigma-Aldrich).

tubulin [2] = assay: Inhibition of tubulin polymerization (assembly assay); type: biochemical; details: tubulin at 10 μM, read-out: Tubulin IC50 ± SD
Description: (§1) The assembly reaction mixtures contained 0.8 M monosodium glutamate (pH 6.6 with HCl in a 2 M stock solution), 10 μM tubulin, 4% (v/v) DMSO, and varying concentrations of the drug. Following a 15 min preincubation at 30 °C, samples were chilled on ice, GTP to 0.4 mM was added, and turbidity development was followed at 350 nm in a temperature-controlled recording spectrophotometer for 20 min at 30 °C. The extent of reaction was measured. Full experimental details were previously described.[63] For the colchicine binding assay, reaction mixtures contained 1.0 μM tubulin, 5.0 μM [^3H]colchicine, and 5.0 or 1.0 μM inhibitor and were incubated for 10 min at 37 °C. Complete details were described previously.[64]

tubulin [3] = assay: Inhibition of [3H]colchicine binding to tubulin; details: for Inhib. colch. binding 1-5-5 (% ± SD): inhibitor at 1:5:5 μM
Description: as §1

[4] = Metabolic stability in human liver microsomes; type: in vitro ADME; details: HLM 0.5 mg/mL, 1 μM, n = 2
Description: (§2) Mouse (Sigma Aldrich, CD-1 male, pooled) and human microsomes (Sigma Aldrich, human, pooled) at 0.5 mg/mL were preincubated with the test compound 15 dissolved in DMSO at 1 μM in phosphate buffer 50 mM, pH 7.4, and 3 mM MgCl2 for 10 min at 37 °C. The reaction was then started by adding the cofactor mixture solution (NADP, glucose-6-phosphate, glucose-6-phosphate dehydrogenase in 2% NaHCO3). Samples were taken at 0, 10, 30, 45, and 60 min and added to acetonitrile to stop the reaction. Samples were then centrifuged, and the supernatant was analyzed by LC–MS/MS to quantify the amount of the compound. A control sample without the cofactor was always added to check the chemical stability of the test compound. […] A fixed concentration of verapamil was added in every sample as an internal standard for LC–MS/MS analyses. The percentage of the area of the test compound remaining at the various incubation times was calculated with respect to the area of the compound at time 0 min.
(§3) The rate constant, k (min^–1), derived for the exponential decay equation (peak area/IS vs time), was used to calculate the rate of Cli.
(§4) Samples were analyzed under the following conditions: UPLC Waters coupled with an API 3200 triple-quadrupole (ABSciex); eluents, (phase A) 95% water, 5% acetonitrile + 0.1% HCOOH, (phase B) 5% water, 95% acetonitrile + 0.1% HCOOH; flow rate, 0.3 mL/min; column, Gemini-Nx 5 μm C18 110A (50 × 2.00 mm) at 35 °C; injection volume, 10 μL. Source conditions ESI positive: T 400 °C, Gas 1 30, Gas 2 35, CUR 30, IS 5500, CAD 5.

[5] = Metabolic stability in mouse liver microsomes; type: in vitro ADME; details: MLM 0.5 mg/mL, 1 μM, n = 2
Description: as §2, §3, §4

Structure (SMILES): COc1cc(C(=O)c2ccn(-c3ccccn3)c2)cc(OC)c1OC [Compound 2, (1-(Pyridin-2-yl)-1H-pyrrol-3-yl)(3,4,5-trimethoxyphenyl)methanone]
- IC50 [1]: 1100 ± 300 nM
- IC50 (tubulin [2]): 480 ± 100 nM
- melting point: 120 to 125 °C
- Inhib. colch. binding 1-5-5 (% ± SD) (tubulin [3]): 83 ± 0.4%

Structure (SMILES): COc1cc(C(=O)c2ccn(-c3cccnc3)c2)cc(OC)c1OC [Compound 3, (1-(Pyridin-3-yl)-1H-pyrrol-3-yl)(3,4,5-trimethoxyphenyl)methanone]
- IC50 [1]: 2500 ± 70 nM
- IC50 (tubulin [2]): 1200 ± 100 nM
- Inhib. colch. binding 1-5-5 (% ± SD) (tubulin [3]): 38 ± 3%

Structure (SMILES): COc1cc(C(=O)c2ccn(-c3ccncc3)c2)cc(OC)c1OC [Compound 4, (1-(Pyridin-4-yl)-1H-pyrrol-3-yl)(3,4,5-trimethoxyphenyl)methanone]
- IC50 [1]: 2500 ± 70 nM
- IC50 (tubulin [2]): > 20000 nM
- Inhib. colch. binding 1-5-5 (% ± SD) (tubulin [3]): 1.4 ± 5%

Structure (SMILES): COc1cc(C(=O)c2ccn(-c3ncccn3)c2)cc(OC)c1OC [Compound 5, (1-(Pyrimidin-2-yl)-1H-pyrrol-3-yl)(3,4,5-trimethoxyphenyl)methanone]
- IC50 [1]: 220 nM
- IC50 (tubulin [2]): 490 ± 10 nM
- Inhib. colch. binding 1-5-5 (% ± SD) (tubulin [3]): 82 ± 1%

Structure (SMILES): COc1cc(C(=O)c2cn(-c3ccccn3)cc2-c2ccccc2)cc(OC)c1OC [Compound 6, (4-Phenyl-1-(pyridin-2-yl)-1H-pyrrol-3-yl)(3,4,5-trimethoxyphenyl)methanone]
- IC50 [1]: 18 ± 2 nM
- IC50 (tubulin [2]): 430 ± 1 nM
- melting point: 150 to 152 °C
- Inhib. colch. binding 1-5-5 (% ± SD) (tubulin [3]): 92 ± 0.5%

Structure (SMILES): COc1cc(C(=O)c2cn(-c3cccnc3)cc2-c2ccccc2)cc(OC)c1OC [Compound 7, (4-Phenyl-1-(pyridin-3-yl)-1H-pyrrol-3-yl)(3,4,5-trimethoxyphenyl)methanone]
- IC50 [1]: 50 ± 10 nM
- IC50 (tubulin [2]): 740 ± 10 nM
- melting point: 171 to 173 °C
- Inhib. colch. binding 1-5-5 (% ± SD) (tubulin [3]): 52 ± 5%

Structure (SMILES): CCOc1ccc2ccc(=O)oc2c1 [Compound 7-EC, 7-ethoxycoumarin, reference compound]
- Cli ± SD [4]: 231.3 ± 37.5 μL/min/mg protein
- t1/2 ± SD [4]: 6.1 ± 1.0 min
- Cli ± SD [5]: 710.8 ± 1.2 μL/min/mg protein
- half-life at 1 h, 1 µM ([5]; male, CD-1, mouse, liver microsomes, pH 7.4, read-out: t1/2 ± SD): 2 ± 0.1 min

Structure (SMILES): COc1cc(C(=O)c2cn(-c3ccncc3)cc2-c2ccccc2)cc(OC)c1OC [Compound 8, (4-Phenyl-1-(pyridin-4-yl)-1H-pyrrol-3-yl)(3,4,5-trimethoxyphenyl)methanone]
- Inhibition of MCF-7 cell growth (in words) [1]: weak inhibitors
- IC50 [1]: 2700 ± 500 nM
- IC50 (tubulin [2]): 6700 ± 100 nM
- Inhib. colch. binding 1-5-5 (% ± SD) (tubulin [3]): 17 ± 4%

Structure (SMILES): COc1cc(C(=O)c2cn(-c3ccccn3)cc2-c2ccco2)cc(OC)c1OC [Compound 9, (4-(Furan-2-yl)-1-(pyridin-2-yl)-1H-pyrrol-3-yl)(3,4,5-trimethoxyphenyl)methanone]
- IC50 [1]: 18 ± 4 nM
- IC50 (tubulin [2]): 740 nM
- Inhibition of [3H]colchicine binding 1:5:1 (tubulin [3]; inhibitor at 1:5:1 μM, 1 µM): 69%
- Inhib. colch. binding 1-5-5 (% ± SD) (tubulin [3]): 95 ± 0.9%

Structure (SMILES): COc1cc(C(=O)c2cn(-c3cccnc3)cc2-c2ccco2)cc(OC)c1OC [Compound 10, (4-(Furan-2-yl)-1-(pyridin-3-yl)-1H-pyrrol-3-yl)(3,4,5-trimethoxyphenyl)methanone]
- IC50 [1]: 39 ± 2 nM
- IC50 (tubulin [2]): 1100 ± 20 nM
- Inhib. colch. binding 1-5-5 (% ± SD) (tubulin [3]): 77 ± 0.1%

Structure (SMILES): COc1cc(C(=O)c2cn(-c3ccncc3)cc2-c2ccco2)cc(OC)c1OC [Compound 11, (4-(Furan-2-yl)-1-(pyridin-4-yl)-1H-pyrrol-3-yl)(3,4,5-trimethoxyphenyl)methanone]
- Inhibition of MCF-7 cell growth (in words) [1]: weak inhibitors
- IC50 [1]: 500 ± 70 nM
- IC50 (tubulin [2]): 3800 ± 700 nM
- Inhib. colch. binding 1-5-5 (% ± SD) (tubulin [3]): 35 ± 3%

Structure (SMILES): COc1cc(C(=O)c2cn(-c3cnccn3)cc2-c2ccco2)cc(OC)c1OC [Compound 12, (4-(Furan-2-yl)-1-(pyrazin-2-yl)-1H-pyrrol-3-yl)(3,4,5-trimethoxyphenyl)methanone]
- Inhibition of MCF-7 cell growth (in words) [1]: strong inhibition
- IC50 [1]: 29 ± 1 nM
- IC50 (tubulin [2]): 910 ± 50 nM
- Inhib. colch. binding 1-5-5 (% ± SD) (tubulin [3]): 86 ± 2%

Structure (SMILES): COc1cc(C(=O)c2cn(-c3ncccn3)cc2-c2ccccc2)cc(OC)c1OC [Compound 13, (4-Phenyl-1-(pyrimidin-2-yl)-1H-pyrrol-3-yl)(3,4,5-trimethoxyphenyl)methanone]
- Inhibition of MCF-7 cell growth (in words) [1]: strong inhibition
- IC50 [1]: 25 ± 8 nM
- IC50 (tubulin [2]): 690 ± 100 nM
- Inhib. colch. binding 1-5-5 (% ± SD) (tubulin [3]): 88 ± 2%

Structure (SMILES): COc1cc(C(=O)c2cn(-c3cncnc3)cc2-c2ccccc2)cc(OC)c1OC [Compound 14, (4-Phenyl-1-(pyrimidin-5-yl)-1H-pyrrol-3-yl)(3,4,5-trimethoxyphenyl)methanone]
- Inhibition of MCF-7 cell growth (in words) [1]: poor inhibitors
- IC50 [1]: > 5000 nM
- IC50 (tubulin [2]): > 20000 nM
- Inhib. colch. binding 1-5-5 (% ± SD) (tubulin [3]): 4.7 ± 5%

Structure (SMILES): COc1cc(C(=O)c2cn(-c3cncnc3)cc2-c2ccco2)cc(OC)c1OC [Compound 16, (4-(Furan-2-yl)-1-(pyrimidin-5-yl)-1H-pyrrol-3-yl)(3,4,5-trimethoxyphenyl)methanone]
- Inhibition of MCF-7 cell growth (in words) [1]: poor inhibitors
- IC50 [1]: 580 ± 30 nM
- IC50 (tubulin [2]): 6700 ± 900 nM
- Inhib. colch. binding 1-5-5 (% ± SD) (tubulin [3]): 19 ± 2%
